Patent publication US10774080B2, “Pyrimidine compound as JAK kinase inhibitor” (THERAVANCE BIOPHARMA R&D IP, LLC, priority 2017, dated 2020)

Assays:
[1] = system: IL-31-induced production of pSTAT3 in mouse skin; experiment: Assay 9: in vivo IL-31-pSTAT3 JAK target engagement in mice; set-up: species or system Balb/c mice; conditions: topical ointment 25 μl/cm^2, 30 minutes before intradermal IL-31, biopsy one hour after IL-31
Source text: Assay 9: In Vivo IL-31-pSTAT3 JAK Target Engagement Assay in Mice
An in vivo model of IL-31-induced production of phosphorylated signal transducer and activator of transcription 3 (pSTAT3) in mice was used to assess local target engagement on mouse skin.
The JAK/STAT (janus kinase/signal transducer and activator of transcription) signaling pathway is a key element in the communication between immune cells and is mainly activated through cytokine receptors. Binding of cytokine IL-31 leads to the activation and phosphorylation of JAK1/JAK2 tyrosine kinases which in turn leads to the phosphorylation of STAT3 (pSTAT3). The activated STAT then translocates into the nucleus and directly regulates the transcription of cytokine-sensitive genes. In these studies, Balb/c mice were dosed with an ointment formulation of compound (I). Ointment vehicle (Table 9) or compound (I) formulated in the ointment vehicle was applied topically to shaved skin (25 μl/cm^2) 30 minutes before the intradermal injection (50 μl/1×1 cm2 site) of IL-31 (1 μg/ml) at a 1×1 cm^2 shaved area of skin on the back between the ears. One hour after IL-31, skin biopsies were collected. The tissue samples were flash frozen and analyzed for pSTAT3 by ELISA and compound concentration. Compound (I) inhibited pSTAT3 production by 80% and the skin tissue concentration of compound (I) was 62 μM.

[2] = system: IL-22 stimulated STAT3 phosphorylation in normal human epidermal keratinocytes; experiment: Assay 14: inhibition of IL-22 stimulated pSTAT3 in normal human epidermal keratinocytes; format: cell-based; conditions: Keratinocyte, read-out: pIC50 for inhibition of IL-22 induced STAT3 phosphorylation (converted)
Protocol: Assay 14: Inhibition of IL-22 Stimulated pSTAT3 in Normal Human Epidermal Keratinocytes
The potency of test compounds for inhibition of interleukin-22 (IL-22) stimulated STAT3 phosphorylation was measured in the normal human epidermal keratinocytes (ATCC) using AlphaLisa. Phosphorylated STAT3 was measured via the AlphaLISA SureFire Ultra pSTAT3 (Tyr705) kit (PerkinElmer).
Primary epidermal keratinocytes were cultured in a 37° C., 5% CO2 humidified incubator in dermal cell basal medium (ATCC) supplemented with keratinocyte growth kit (ATCC) and 1× Pen/Strep (Life Technologies). […]
After cytokine stimulation, cells were lysed with 5 ul of 5× AlphaLisa Lysis Buffer (PerkinElmer) containing 1× PhosStop and Complete tablets (Roche). […] Phosphorylated STAT3 was measured via the pSTAT3 AlphaLisa kit (PerkinElmer). […] Luminescence was measured with excitation at 689 nm and emission at […] using an EnVision plate reader (PerkinElmer) under green filtered <100 lux light.
Luminescence signals were recorded and utilized to calculate the percent inhibition values based on DMSO and controls. For dose-response analysis, percent inhibition data were plotted vs. compound concentrations, and IC50 values were determined from a 4-parameter robust fit model with the Prism software.

[3] = system: Caco-2 cell monolayers; experiment: Assay 16: Caco-2 permeation assay; format: in vitro ADME; conditions: 5 μM, A to B, with Verapamil (25 μM), 120 minutes
Protocol: (§1) Assay 16: Caco-2 Permeation Assay The Caco-2 permeation assay was used as an indication of skin permeability. The assay measures the rate at which test compounds in solution permeate a cell monolayer (designed to mimic the tight junction of human small intestinal monolayers). CacoReady 24-well transwell plates were obtained from […], Calif.). The compounds were evaluated at a concentration of 5 μM from 10 mM DMSO stock solutions in duplicate (n=2). The passive permeability of the compounds tested was evaluated using Caco-2 cell monolayers along with Verapamil (25 μM) to inhibit P-gp transport proteins in the apical to basolateral (A-B) direction. The experiment was conducted in a 37° C., 5% CO2 incubator. Caco-2 culture media consisted of standard filtered DMEM, FCS 10%, L-Glutamine 1% and PenStrep 1%. Basal assay plate was prepared by adding 750 μL of transport buffer to A-B wells. A CacoReadyTM plate was prepared by removing the Caco-2 media from the apical wells and replacing with fresh transport media (200 μL repeated for a total of 3 washes). Blank media (200 μL) was then replaced with diluted compound for A-B wells. To begin the incubation, the basal plate was removed from the incubator and the apical section was added on top of it. […] The permeation coefficient (Kp, mean A to B+Verapamil […]) in cm/sec was calculated as dQ (flux)/(dt×Area×concentration).

[4] = Assay 16: Caco-2 permeation assay; format: in vitro ADME; conditions: human, Caco-2, with Verapamil 25 μM (P-gp); as illustrated in Table 13; read-out: permeability class (Caco-2)
Protocol: as §1

[5] = Assay 7: epidermal and dermal deposition in freshly excised human skin; format: in vitro ADME; conditions: 0.5% ointment, about 40 hours continuous exposure
Protocol: Assay 7: Ex Vivo JAK Pharmacodynamic (PD) Assay Using Human Freshly Excised Skin An ex vivo JAK pharmacodynamics (PD) assay was conducted using human isolated skin tissue. The PD assay used fresh human skin (dermatome of 750 μm thickness) that was mounted in static Franz cells with a surface area of ˜0.5 cm^2. The receiver chambers of the Franz cells were filled with warm (37° C.) cornification media and placed in an incubator at 37° C. The skin was topically dosed with 10 μL ([…]) of compound (I) or vehicle and was left undisturbed overnight (˜24 hours). The next day, with no re-application of the test compound or vehicle, the media was replaced with a Th1-skewed stimulation cocktail consisting of TNFα, IFNγ and IL-12. The skin was left undisturbed for an additional 16 hours, and then harvested and processed for RNA extraction and qPCR of biomarkers: CXCL10, CCL2. GAPDH was used as an internal standard. The compound (I) was formulated in an ointment formulation at 0.5% strength. A total of three skin donors (tested in quadruplicates/sample/treatment) were used. Treatment effect was calculated as the percent increase or decrease in stimulation compared to the vehicle group. [table]

CCS(=O)(=O)N1[C@@H]2CCC[C@H]1C[C@H](N(C)c1nc(CO)c(F)c(Nc3cc(C)[nH]n3)n1)C2 [Compound (I), (2-(((1R,3s,5S)-9-(ethylsulfonyl)-9-azabicyclo[3.3.1]nonan-3-yl)(methyl)amino)-5-fluoro-6-((5-methyl-1H-pyrazol-3-yl)amino)pyrimidin-4-yl)methanol]
inhibition of IL-31-induced pSTAT3 production [1]: 80%
IC50 [2]: 3.98 nM
Cacoverap Kp [3]: 42.3 ×10⁻⁶ cm/s
Papp A→B at 120 min, 5 μM [4]: > 20 ×10⁻⁶ cm/s
PK-Tissue concentration (μM, mean ± SD) Dermis [5]: 6.1 ± 5.3 µM
PK-Tissue concentration (μM, mean ± SD) Epidermis [5]: 116.5 ± 91.9 µM
